Laboratory results as given in PubChem BioAssay (NCI).
Where “and” joins values, the source holds several entries; their conditions need not be identical. Equal entries are not always repeated.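 Step 1: Grow cells in 96-well plates. Step 2: Expose to compound for 48 hours at 5 concentrations. Step 3: Interpolate endpoints linearly; if unreached, use highest concentration. Abbreviation: GI50, concentration required for 50% inhibition of growth. Definition used: TGI = concentration required for complete inhibition of growth.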

What was measured:
Assay in all cases: DTP human tumour cell line panel, 48 h
KM12 colon = tested on: KM12 colon
CAKI-1 renal = tested on: CAKI-1 renal
HOP-62 NSCLC = tested on: HOP-62 NSCLC
SK-MEL-5 melanoma = tested on: SK-MEL-5 melanoma
786-0 renal = tested on: 786-0 renal
HCT-15 colon = tested on: HCT-15 colon
MCF7 breast = tested on: MCF7 breast
NCI/ADR-RES ovarian = tested on: NCI/ADR-RES ovarian
RXF 393 renal = tested on: RXF 393 renal
MOLT-4 leukemia = tested on: MOLT-4 leukemia

Row | SMILES | TGI (KM12 colon) [µM] | TGI (CAKI-1 renal) [µM] | TGI (HOP-62 NSCLC) [µM] | TGI (SK-MEL-5 melanoma) [µM] | TGI (786-0 renal) | TGI (HCT-15 colon) [µM] | TGI (MCF7 breast) | TGI (NCI/ADR-RES ovarian) | TGI (RXF 393 renal) | GI50 (MOLT-4 leukemia) [µM] | TGI (MOLT-4 leukemia) | GI50 (KM12 colon) [µM] | GI50 (CAKI-1 renal) | GI50 (786-0 renal) | GI50 (HCT-15 colon) [µM] | GI50 (NCI/ADR-RES ovarian) [µM] | GI50 (RXF 393 renal) [µM] | GI50 (HOP-62 NSCLC) [µM] | GI50 (SK-MEL-5 melanoma) [µM] | GI50 (MCF7 breast) [µM]
1 | COc1cccc(/C=N/C(/N=C/c2cccc(OC)c2O)c2cccc(OC)c2O)c1O | 76.7 | 48.1 | > 100 | 35.1 | > 100 µM | > 100 | 62.8 µM | 85.2 µM | 29.2 µM | – | – | – | – | – | – | – | – | – | – | –
2 | S=P(N1CC1)(N1CC1)N1CC1 | – | – | – | – | 31.2 µM and 187 µM and 306 µM | – | 311 µM and 550 µM | 511 µM and 225 µM | 39.6 µM and 251 µM and 308 µM | 1.27 | 53.4 µM and 334 µM and 54.9 µM | 27 | 6.08 µM and 20 µM | 5.33 µM and 52.4 µM | 26.2 | 53.8 | 18.8 | – | – | –
3 | COC(=O)/C=C/c1cc2c(cc1-c1c(C(=O)O)cc(OC)c(OC)c1OC)OCO2 | > 10 | > 10 | > 10 | > 10 | > 10 µM | > 10 | > 10 µM | > 10 µM | – | – | > 10 µM | – | – | – | – | – | – | – | – | –
4 | CC12CCC(Br)C(C)(C)C1CC=C1C(=O)OCC1O2 (stereo not given) | 32.3 | 26.8 | – | > 100 | > 48.6 µM | 39 | 22.7 µM | 56.9 µM | 26.3 µM | – | > 100 µM | – | – | – | – | – | – | – | – | –
5 | COC(=O)CC[C@H](Cc1ccccc1)NC(=O)c1csc([C@@H](C[C@H](C(C)C)N(C)C(=O)[C@@H](NC(=O)[C@H]2CCCCN2C)C(C)C)OC(C)=O)n1 | > 25 | – | > 25 | 0.0984 | > 25 µM | > 25 | > 25 µM | > 25 µM | > 25 µM | < 0.0025 | 10.5 µM | < 0.0025 | – | < 0.0025 µM | 0.00685 | 0.0714 | < 0.0025 | < 0.0025 | < 0.0025 | < 0.0025
6 | O=C1c2ccccc2-c2c1c1ccccc1c(=O)n2CCCn1ccnc1 | 5.95 | 2.05 | 13 | – | 7.72 µM | > 100 | > 100 µM | 6.09 µM | > 100 µM | 0.274 | 0.763 µM | 1.94 | 0.443 µM | 1.74 µM | 1.9 | 1.81 | 6.15 | 2.72 | – | 0.902
7 | CC1(C)C2C=CC1C(=O)CC2 (stereo not given) | > 100 | > 100 | > 100 | > 100 | > 100 µM | > 100 | – | – | > 100 µM | – | > 100 µM | – | – | – | – | – | – | – | – | –
8 | O=c1c(-c2ccccc2)coc2cc(OC/C(=N/O)c3ccccc3)ccc12 | 48.3 | – | 51.3 | 24.6 | 50.4 µM | 39.6 | 47.1 µM | 60 µM | – | 12.4 | > 100 µM | 20.2 | – | 25.4 µM | 16.2 | 17.8 | – | 18.9 | 10.9 | 23.3
9 | CN(C)CC/[N+]([O-])=C(/c1ccccc1)C12CC3CC(CC(C3)C1)C2 | 33.3 | 31.5 | 28.9 | 32 | 26.8 µM | 38.8 | – | – | 32.9 µM | – | 34.1 µM | – | – | – | – | – | – | – | – | –
10 | Cc1cccc(C)c1NC(=O)C(=O)Nn1c(NN)nc2ccccc2c1=O | > 100 | > 100 | > 100 | > 100 | > 100 µM | > 100 | – | – | > 100 µM | – | > 100 µM | – | – | – | – | – | – | – | – | –
11 | N#CC1(C#N)C(C#N)(C#N)C12CCCCCC2 | 19.3 | 24.6 | > 89.4 | 36.7 | 14.3 µM | 24.2 | – | – | 22.9 µM | – | 19.5 µM | – | – | – | – | – | – | – | – | –
12 | COc1ccc(C2ON(c3cccc(C)n3)CC=C2C)cc1 (stereo not given) | > 100 | > 100 | > 100 | 33.3 | > 100 µM | > 100 | – | – | 96.5 µM | – | > 100 µM | – | – | – | – | – | – | – | – | –
13 | OCC#Cc1ccccc1C#CCCCCCC#Cc1ccccc1C#CCO | 49.4 | 43.8 | 31.4 | 33.1 | 32.3 µM | 30.7 | 40.2 µM | 36.7 µM | – | 15.6 | 37.3 µM | 18.8 | 19.3 µM | 16.8 µM | 15.9 | 18.8 | – | 16.2 | 18.9 | 18.5
14 | C[N+]1=C(/C=C\C=C\c2ccccc2)C(C)(C)c2ccccc21 | 10.8 | 13.5 | 15.1 | – | 10.7 µM | 11.8 | 11 µM | 33.9 µM | 3.62 µM | 2.13 | 6.44 µM | 3.15 | 3.82 µM | 3.19 µM | 2.27 | 9.45 | 1.75 | 4.1 | – | 2.48
15 | NC(N)=NS(=O)(=O)c1ccc(Nc2c3ccccc3nc3c(C(=O)Nc4ccc(S(N)(=O)=O)cc4)cccc23)cc1 | > 100 | > 100 | > 100 | > 100 | > 100 µM | > 100 | – | – | > 100 µM | – | > 100 µM | – | – | – | – | – | – | – | – | –
16 | C=CCC1C(=O)CC2(C)CC(=O)C(CC=C)C12C (stereo not given) | > 100 | > 100 | > 100 | > 100 | > 100 µM | > 100 | – | – | > 100 µM | – | > 100 µM | – | – | – | – | – | – | – | – | –
17 | Clc1ccc(C(n2cc(Br)cn2)n2cc(Br)cn2)cc1 | 31.6 | 23.4 | 34.3 | 27.2 | 27.8 µM | 33.2 | – | – | 32.5 µM | – | 47.9 µM | – | – | – | – | – | – | – | – | –
18 | CCN(CC)c1ccc(N=Nc2ccc(-c3nc4ccc[n+](C)c4o3)cc2)cc1 | 24.5 | 26.3 | 29.9 | 11 | 23.7 µM | 22.3 | – | – | 22.6 µM | – | 16.2 µM | – | – | – | – | – | – | – | – | –
19 | CCOC(=O)c1[nH]c(COC(C)=O)c2c1CCCCCCCCCC2 | > 100 | > 100 | > 100 | > 100 | > 100 µM | > 100 | – | – | > 100 µM | – | > 100 µM | – | – | – | – | – | – | – | – | –
20 | CC1OC(n2cc(F)c(=O)[nH]c2=O)C=CC1=O (stereo not given) | 31.5 | 31.1 | > 100 | 31.4 | 29.4 µM | 46.1 | – | – | 30.4 µM | – | 69.3 µM | – | – | – | – | – | – | – | – | –
